Experiments:
blanket crabgrass = assay: Example 4: blanket crabgrass control trial in Floratam St Augustinegrass; format: in vivo, blanket crabgrass (Digitaria serotina); conditions: quinclorac 573 g ai/ha; two applications, 21-day interval
Description: (§1) Two applications were made on a 21-day interval.

Torpedograss = assay: Example 3: Torpedograss control trial; format: in vivo, Torpedograss (Panicum repens); conditions: quinclorac 573 g ai/ha with and without metcamifen 75 g ai/ha; two applications, 21-day interval
Description: as §1

[1] = system: St Augustinegrass variety 'Floratam'; assay: Example 1: Floratam St Augustinegrass phytotoxicity trial; conditions: quinclorac alone, both formulations, 573 g ai/ha, two applications on 21-day interval

O=C(O)c1c(Cl)ccc2cc(Cl)cnc12 [Quinclorac, 3,7-dichloro-8-quinolinecarboxylic acid]
blanket crabgrass control (in words) (blanket crabgrass): excellent, significant control | Torpedograss control / efficacy (in words) (Torpedograss): provided control of Torpedograss | injury to Floratam St Augustinegrass (in words) [1]: significant injury
